The values that follow come from patent publication US7122569B2, “Ethylene glycol esters as photoactive agents” (priority 1997, dated 2006).

For one series, the system named is M1 tumors. Nature of the series: In vivo photodynamic therapy in mice harboring M1 tumors, tumor-free on day 7. As to conditions: 1 mg/kg IV, 50 J/cm^2 690 nm. The source says: This was followed by whole body irradiation with 50 J/cm^2 of 690 nm laser light at various times after administration of the drug.
The test system of another series is L1210 cells. The experiment in a line: In vitro photocytotoxicity on L1210 cells, 690 nm light 5 J/cm^2, MTT. The following applies: 690 nm 5 J/cm^2. The series is classed as cell-based, murine. The procedure: (§1) Either L1210 cells or the dendritic cell line D2SC/1 was incubated for one hour at 37° C. with either A-EA6 or BPD-MA. After removal of excess drug, the cells were exposed to 690 nm light at 5 J/cm^2 light. Cell survival was determined 18–24 hours later using the MTT colorimetric assay described in Example 5. Percent cells killed was calculated by reference to cells exposed to light only. […] The open circles represent A-EA6 plus serum; the closed circles represent BPD-MA plus serum; open squares represent A-EA6 in the absence of serum; and closed squares represent BPD-MA in the absence of serum.

Series [1] deals with stress pathway kinases c-jun and HSP27. The experiment in a line: PDT effect on stress pathway kinases in HL-60 cells. It is filed as cell-based. As to conditions: sublethal concentrations. The source says:
(§2) The conditions of the study set forth in Example 11 were repeated using HL-60 cells as the target and comparing the effects of A-EA6 and BPD-MA on cytotoxicity, on the mitogenic pathway kinase p70 S6K, and on the stress pathway kinases c-jun and HSP27.

The subject of a further series is HL-60 cells. Nature of the series: DNA fragmentation in HL-60 cells after PDT. It is filed as cell-based.
The test system of series [2] is mitogenic pathway kinase p70 S6K. The experiment in a line: PDT effect on mitogenic pathway kinase in HL-60 cells. It is filed as cell-based. As to conditions: sublethal concentrations.
Description: as §2

Series [3] concerns antigen-induced ear swelling. The experiment in a line: Immunomodulatory activity, whole-body PDT, suppression of ear swelling. It is filed as in vivo, mice. The following applies: red LED light 15 J/cm^2. The procedure:
Flanks of control and test mice were painted with the antigen DMFB and their ears were challenged 5 days later by pasting with the same compound. […] The percent suppression of ear swelling was calculated in comparison to controls.

In series [4] the test system is dendritic cell line D2SC/1. Nature of the series: In vitro photocytotoxicity on dendritic cell line D2SC/1, 690 nm light 5 J/cm^2, MTT. The following applies: dendritic cells, 5% fetal calf serum, 690 nm 5 J/cm^2. It is filed as cell-based. Here is the method: as §1
The next series has as its system MHC I receptors. The experiment in a line: Surface expression of MHC I receptors on dendritic cells after PDT, flow cytometry. The series is classed as cell-based. The following applies: 690 nm 5 J/cm^2, 3 hours post-treatment. The procedure:
The cells were treated with 690 nm light at 5 J/cm^2 and then labeled with the appropriate antibody 3 hours post-treatment and assessed by flow cytometry. The results were measured as the percent of the mean channel fluorescence intensity for light-treated control cells.

For a further series, the system named is caspases. Nature of the series: Caspase activation in HL-60 cells after PDT. It is filed as cell-based. Here is the method:
The effect on caspase activation in HL-60 cells was also measured. […] This effect is desirable as it is associated with apoptosis. Using apoptosis to remove unwanted cells causes the least effect on surrounding normal cells and tissues.

Molecules are shown by their SMILES.

Take `C=Cc1c(C)c2cc3nc(cc4[nH]c(cc5nc(cc1[nH]2)C(C)=C5CCC(=O)OCCO)c(CCC(=O)OCCO)c4C)C1(C)C3=CC=C(C(=O)OC)C1C(=O)OC` (stereo not shown) [A-EA6]: the “Day 7 tumor-free animals” value in the series on M1 tumors (irradiation 15 min post i.v.) is 2/2; in the series on M1 tumors (irradiation 30 min post i.v.), 6/6. Also, the “cytotoxicity compared with BPD-MA” value with L1210 cells (absence of serum) is “comparable cytotoxicity to BPD-MA”; with L1210 cells (presence of serum), “markedly more toxic”. In addition, the “activation of stress pathway kinases compared with BPD-MA” value in series [1] is recorded as “stronger activation of the stress pathway kinases”. For the same compound, the “percent DNA fragmentation compared with BPD-MA” value in the series with HL-60 cells is “effective at lower concentrations than BPD-MA”. Moreover, the “inhibition of mitogenic pathway kinases compared with BPD-MA” value in [2] is listed as “stronger inhibition of the mitogenic pathway kinases”. In addition, the “Percent suppression of ear swelling” value in series [3] (0.3 mg/kg IV) turned out to be 59%; in [3] (1.0 mg/kg IV), 68%. Moreover, the LD50 in [4] turned out to be 2.7 ng/mL. Also, the “reduction of MHC I mean channel fluorescence vs light-treated control cells” value in the series with MHC I receptors (1 ng/ml) and in the series on MHC I receptors (2.5 ng/ml) was “approximately 25%” throughout. Moreover, in the series with caspases, the “caspase activation compared with BPD-MA” value is “stronger activation of caspases”.
